Assay results from patent publication US5658913A, “Chemopreventive compounds and a preparation method and use thereof” (Kim; Nak Doo, priority 1993, dated 1997).

How the values were obtained:
[1] = system: enzymes involved in phase II reactions; conditions: literature; cited from earlier work
[2] = system: Glutathion S-transferase (GST); test: GST activity, administered alone or in combination with INAH (Experimental Example 4(2)); format: in vivo, Sprague-Dawley rat; conditions: for induction of expression of glutathione S-transferase when INAH is administered: in words; for increase of expression of glutathione S-transferase: Table 3
Method: Thus, to 25 μg(0.1 ml) of cytosol protein were added 0.1 mM […] and 1.0 mM glutathione as substrates, and 0.1M potassium phosphate were added to make the total volume of 1.0 ml(pH 6.4). The resulting mixture was allowed to stand at room temperature for 2 minutes and measured for its absorbance at 340 nm at intervals of 15 seconds during the period of 1 minute. As a reference, a cytosol protein denatured by heating was used. The activity of GST was calculated by measuring the change of absorbance for the period of 1 minute and employing the extinction coefficient of 9.6 mM^-1 cm^-1.
In order to examine the effect of the compound of the present invention on the activity of the enzymes involved in phase II reaction when administered alone or in combination with INAH, the experiments were carried out as follows:
Sixteen groups of Sprague-Dawley rat weighing 190±30 g were intraperitoneally administered with corn oil(Group 1), compounds of Examples 2 to 8(Groups 2 to 8), INAH(Group 9), or INAH plus the compounds of Examples 2 to 8(Groups 10 to 16), each in a dose of 200 mg/kg. The inventive compounds and INAH were diluted with corn oil, and the test compounds were administered just after administering INAH.
The change in the activity of GST was measured by following the same procedure as in Experimental Example 3(2). The activity of enzyme was determined by considering the activity of enzyme when corn oil or INAH alone was administered as 100%.

[3] = system: p-nitrophenol hydroxylase; test: p-Nitrophenol hydroxylase activity in combination with INAH (Experimental Example 2(2)); format: in vivo, Sprague-Dawley rat; conditions: INAH alone = 100%; INAH plus compound, each 200 mg/kg i.p.
Method: Thus, 1 mg of microsomes and 1mM p-nitrophenol were added to 0.6 ml of 0.1M potassium phosphate buffer(pH 6.8) to make the total volume of 0.9 ml. The resulting mixture was preliminarily reacted in a 37° C. incubator for 2 minutes and started to react while adding 1 mM NADPH(0.1 ml). After 3 minutes, 0.5 ml of 0.6N perchloric acid was added to develop a color and the absorbance at 546 nm was measured at once. The enzyme activity was expressed in terms of mole concentration of 4-nitrocatechol, the product of reaction for 1 minute.
(§1) In order to examine the effect of the compound of the present invention on the activity of the enzymes involved in phase I reaction when administered in combination with INAH, the experiments were carried out as follows:
(§2) Eight groups of Sprague-Dawley rat weighing 190±30 g were intraperitoneally administered with INAH(Group 1), or INAH plus the compounds of Examples 2 to 8(Groups 2 to 8), each in a dose of 200 mg/kg. The inventive compounds and INAH were diluted with corn oil and PBS respectively, and the test compounds were administered just after administering INAH.
(§3) The changes in the activity of p-nitrophenol hydroxylase and aniline hydroxylase were measured by following the same procedure as in Experimental Example 1(2-1) and (2-2). The activity of enzymes was determined by considering the activity of enzyme when INAH alone was administered as 100%.

[4] = system: p-nitrophenol hydroxylase; test: as above; format: in vivo, Sprague-Dawley rat; conditions: for p-Nitrophenol hydrolase, Amount: INAH 200 mg/kg i.p., alone or plus compound 200 mg/kg; for inhibition of expression of p-nitrophenol hydroxylase induced by INAH: INAH plus compound, each 200 mg/kg i.p., in words
[5] = system: aniline hydroxylase; test: Aniline hydroxylase activity in combination with INAH (Experimental Example 2(2)); format: in vivo, Sprague-Dawley rat; conditions: for Aniline hydroxylase, Amount: INAH 200 mg/kg i.p., alone or plus compound 200 mg/kg; for Aniline hydroxylase, Activity: INAH alone = 100%; for Aniline hydroxylase, Activity / inhibition of expression of aniline hydroxylase induced by INAH: INAH plus compound, each 200 mg/kg i.p.; for inhibition of expression of aniline hydroxylase induced by INAH: in words
Method: Thus, 1 mg of microsomes and 5 mM aniline were added to 0.6 ml of 0.1M potassium phosphate buffer(pH 6.8) to make the total volume of 0.9 ml. 1 mM NADPH was added to make the total volume of 1.0 ml and the resulting mixture was reacted at 37° C. After 10 minutes, 20% trichloroacetic acid was added to stop the reaction and the reaction mixture was centrifuged. To 1 ml of supernatant were added 0.1 ml of 5% phenol and 0.1 ml of 2.5N sodium carbonate, dissolved in 0.1N NaOH. The mixture was allowed to stand for 30 minutes to develop a color and the absorbance at 630 nm was measured at once. The enzyme activity was expressed in terms of mole concentration of 4-aminophenol, the product of reaction for 1 minute.
as §1, §2, §3

[6] = system: P450 2E1; test: Immunoblot analysis of P-450 2E1 expression when administered together with INAH (Experimental Example 2(1)); format: in vivo, Sprague-Dawley rat; conditions: 200 mg/kg i.p. plus INAH 200 mg/kg; FIG. 5
Method: To the first group as a control group, corn oil was administered intraperitoneally in an amount of 0.1 ml/200 g body weight. The second group was administered intraperitoneally INAH diluted with PBS in a dose of 200 mg/kg body weight. […] The hepatic microsomes were separated and subjected to Western blot analysis on SDS-PAGE by following the same procedure as in the above Experimental Example 1 (1).

[7] = system: cancers; conditions: literature; cited from earlier work
[8] = system: cytochrome P-450 2E1; conditions: cited from earlier work; for effect on cytochrome P-450 2E1 expression: literature / inventors' submitted paper
[9] = INAH alone or INAH plus compound, each 200 mg/kg i.p.
[10] = INAH plus compound, each 200 mg/kg i.p., INAH alone = 100%
[11] = compound alone, 200 mg/kg i.p., corn oil = 100%

| induction of expression of glutathione S-transferase when INAH is administered ([2]; INAH plus compound) | inhibition of expression of p-nitrophenol hydroxylase induced by INAH [4] | inhibition of expression of aniline hydroxylase induced by INAH [5] | suppression of enzyme (P450 2E1) expression induced by INAH [6] | Compound | induction of enzymes involved in phase II reactions [1] | Glutathion S-transferase, Amount [2, 9] [nmol/min/mg protein] | Glutathion S-transferase, Activity [2, 10] [%] | Glutathion S-transferase, Amount ([2]; compound alone, 200 mg/kg i.p.) [nmol/min/mg protein] | Glutathion S-transferase, Activity [2, 11] [%] | p-Nitrophenol hydrolase, Activity [3] [%] | p-Nitrophenol hydrolase, Amount [4] [nmol/min/mg protein] | Aniline hydroxylase, Amount [5] [nmol/min/mg protein] | Aniline hydroxylase, Activity [5] [%] | increase of expression of glutathione S-transferase ([2]; compound alone, 200 mg/kg i.p.) [%] | cancer suppression [7] | suppression of cytochrome P-450 2E1 induced by pyrazine ([8]; inventors' submitted paper) | effect on cytochrome P-450 2E1 expression [8] |
| --- | --- | --- | --- | --- | --- | --- | --- | --- | --- | --- | --- | --- | --- | --- | --- | --- | --- |
|  |  |  |  | 2(3)-tert-butyl-4-hydroxyanisole [butylhydroxyanisole] | shows an anti-cancer activity by inducing enzymes involved in phase II reactions |  |  |  |  |  |  |  |  |  |  |  |  |
|  |  |  |  | c1ccc(CSc2cnccn2)cc1 [Example 2, 2-(benzylthio)pyrazine] |  | 2.675 | 133 | 2.533 | 147 | 78 | 4.52 | 1.070 | 74 |  |  |  |  |
| strongly induce expression of enzyme |  |  |  | CC(C)=CCSc1cnccn1 [Example 3, 2-(3-methyl-2-butenylthio)pyrazine] |  | 3.071 | 153 | 2.708 | 157 | 73 | 4.23 | 1.108 | 76 |  |  |  |  |
|  |  |  |  | C(=Cc1ccccc1)CSc1cnccn1 [Example 4, 2-(cinnamylthio)pyrazine] |  | 2.683 | 134 | 2.892 | 168 | 64 | 3.69 | 0.972 | 67 |  |  |  |  |
| strongly induce expression of enzyme |  |  |  | c1coc(CSc2cnccn2)c1 [Example 5, 2-(furfurylthio)pyrazine] |  | 3.029 | 151 | 2.996 | 174 | 61 | 3.53 | 0.972 | 67 | ≥ 70 |  |  |  |
|  |  |  |  | C=C(C)CCSc1cnccn1 [Example 6, 2-(3-methyl-3-butenylthio)pyrazine] |  | 2.375 | 118 | 2.558 | 148 | 56 | 3.25 | 0.879 | 60 |  |  |  |  |
|  | superior inhibitory action | superior inhibitory action |  | CC=CCSc1cnccn1 [Example 7, 2-(2-butenylthio)pyrazine] |  | 2.263 | 113 | 3.046 | 177 | 40 | 2.33 | 0.712 | 49 | ≥ 70 |  |  |  |
| strongly induce expression of enzyme | superior inhibitory action | superior inhibitory action | strongest suppression | C=CC(C)Sc1cnccn1 (stereo not drawn) [Example 8] |  | 2.808 | 140 | 3.290 | 181 | 40 | 2.33 | 0.659 | 45 | ≥ 70 |  |  |  |
|  |  |  |  | NNC(=O)c1ccncc1 [INAH, isoniazid, reference compound] |  | 2.008 | 100 |  |  | 100 | 5.80 | 1.453 | 100 |  |  |  |  |
|  |  |  |  | Cc1c(-c2cnccn2)ssc1=S [Oltipraz] | ability of inducing enzymes of phase II reactions |  |  |  |  |  |  |  |  |  | can suppress lung and stomach cancers |  |  |
|  |  |  |  | C=CCSCC=C [allylsulfide, diallylsulfide] |  |  |  |  |  |  |  |  |  |  | strongly suppress liver and colon cancers | completely suppress cytochrome P-450 2E1 induced by the action of pyrazine | strongly inhibits the expression of cytochrome P-450 2E1 |
|  |  |  |  | Cc1cc(C(C)(C)C)c(O)c(C(C)(C)C)c1 [butylhydroxytoluene, 3,5-ditert-butyl-4-hydroxytoluene] | shows a anti-cancer activity by inducing enzymes involved in phase II reactions |  |  |  |  |  |  |  |  |  |  |  |  |
|  |  |  |  | c1cnccn1 [pyrazine] |  |  |  |  |  |  |  |  |  |  |  |  | inducing cytochrome P-450 2E1 |
